Earlier results, collected in patent US20070059371A1, “Nanoparticulate ebastine formulations” (Elan Pharma International, Limited, priority 2005, published 2007).

Columns and labels:
[1] = mainly as conjugated metabolites

solubility in water: not very soluble in water | excreted in the urine [1]: 66%
SMILES: CC(C)(C)c1ccc(C(=O)CCCN2CCC(OC(c3ccccc3)c3ccccc3)CC2)cc1 [Ebastine, 4′-tert-butyl-4-[4-(diphenylmethoxy)piperidino]butyrophenone]
